What was measured:
[1] = Stable Replicon Assay: The assay utilized the stably transfected cell line Huh-7 luc/neo (hereafter referred to as Huh-Luc). This cell line harbors an RNA encoding a bicistronic expression construct comprising the wild type NS3-NS5B regions of HCV type 1b translated from an Internal Ribosome Entry Site (IRES) from encephalomyocarditis virus (EMCV), preceded by a reporter portion (FfL-luciferase), and a selectable marker portion (neoR, neomycine phosphotransferase). The construct is flanked by 5' and 3' NTRs (non-translated regions) from HCV type 1b. Continued culture of the replicon cells in the presence of G418 (neoR) is dependent on the replication of the HCV RNA. The stably transfected replicon cells that replicate HCV RNA autonomously and to high levels, encoding inter alia luciferase, were used for screening the antiviral compounds. The replicon cells were plated in 384 well plates in the presence of the test and control compounds which were added in various concentrations. Following an incubation of three days, HCV replication was measured by assaying luciferase activity (using standard luciferase assay substrates and reagents and a Perkin Elmer ViewLux™ ultraHTS microplate imager). Replicon cells in the control cultures have high luciferase expression in the absence of any inhibitor. The inhibitory activity of the compound was monitored on the Huh-Luc cells, enabling a dose-response curve for each test compound.
[2] = (§1) Transient Replicon Assay: In a transient set-up, a Huh-7 lunet hepatoma cell line was transiently transfected with an autonomously replicating RNA encoding a bi-cistronic expression construct. This construct comprises a firefly luciferase reporter gene preceding the NS3-NS5B subgenomic region of HCV (genotype 1a H77 or 1b Con1). Translation of the HCV subgenomic region is mediated by an internal ribosome entry site of encephalomyocarditis virus. The construct is furthermore flanked by 5' and 3' untranslated regions of HCV (genotype 1a H77 or 1b Con 1, respectively), which allow for replication of the RNA. In addition to the wild-type constructs, site-directed mutations were introduced into the transient HCV genotype 1b replicon in the gene encoding for the non-structural protein 5A (NS5A). More precisely, amino acid residues 28, 30, 31 and 93 in NS5A were independently altered. Cells were plated in 384 well plates in the presence of test and control compounds, which were added in various concentrations. Following an incubation of two days, replication of the HCV subgenomic replicon RNA was measured by assaying luciferase activity (using standard luciferase assay substrates and reagents and a Perkin Elmer ViewLux™ ultraHTS microplate imager). HCV subgenomic replicon containing cells in the control cultures have high luciferase expression in the absence of any inhibitor. The inhibitory activity of the compound was monitored, enabling a dose-response curve for each test compound.; assay type: cell-based
Nonstructural protein 5A = Nonstructural protein 5A (Hepatitis C virus, UniProt Q5L478); experiment: as §1; assay type: cell-based

Row | SMILES | EC50 [1] [pM] | EC50 [2] [pM] | EC50 (Nonstructural protein 5A) [pM]
1 | CC[C@H](C)[C@H](NC(=O)OC)C(=O)N1CCC[C@H]1c1nc2cc(-c3ccc4cc(-c5cnc([C@@H]6CCCN6C(=O)[C@@H](NC(=O)OC)[C@@H](C)OC)[nH]5)ccc4c3)ccc2[nH]1 | 3 | 4 | –
2 | COC(=O)N[C@H](C(=O)N1CCC[C@H]1c1ncc(-c2ccc3cc(-c4ccc5nc([C@@H]6CCCN6C(=O)[C@@H](NC(=O)OC)[C@@H](C)OC)[nH]c5c4)ccc3c2)[nH]1)C(C)C | – | – | < 17
3 | COC(=O)N[C@H](C(=O)N1CCC[C@H]1c1nc2ccc(-c3ccc4cc(-c5cnc([C@@H]6CCCN6C(=O)[C@@H](NC(=O)OC)[C@@H](C)OC)[nH]5)ccc4c3)cc2[nH]1)C(C)C | 6 | – | –
4 | CC[C@H](C)[C@H](NC(=O)OC)C(=O)N1CCC[C@H]1c1nc2ccc(-c3ccc4cc(-c5cnc([C@@H]6CCCN6C(=O)[C@@H](NC(=O)OC)C(C)C)[nH]5)ccc4c3)cc2[nH]1 | – | – | < 13
5 | CC[C@@H](C)[C@H](NC(=O)OC)C(=O)N1CCC[C@H]1c1ncc(-c2ccc3cc(-c4ccc5nc([C@@H]6CCCN6C(=O)[C@@H](NC(=O)OC)[C@H](C)CC)[nH]c5c4)ccc3c2)[nH]1 | 3 | 2 | –

Source: ChEMBL document CHEMBL3886209, “Benzimidazole-imidazole derivatives” (2016)
